Test results: patent US20230233674A1 (priority 2022, published 2023)

Columns and labels:
[1] = cited from earlier work
[2] = test system: Influenza A/California/04/2009 (H1N1); parameters: species or system mice; settings: mouse, in vivo

| Molecule | in vivo half-life [1] | mean peak weight loss [2] |
| --- | --- | --- |
| 2′-3″cyclic guanosine monophosphate adenosine monophosphate [cGAMP] | ~35 min | – |
| CCOC(=O)C1=C[C@@H](OC(CC)CC)[C@H](NC(C)=O)[C@@H](N)C1 [Oseltamivir] | – | −32% |
